IC50 data for 16 molecules are collected here from patent US9376425B2, “Heterocyclic compounds as MDM2 inhibitors for the treatment of cancer” (AMGEN INC., priority 2011, dated 2016).

Bounds are passed on as bounds.

For this experiment, the target named is T1, human MDM2 (GST-hMDM2 1-188), interaction with biotinylated-p53 (1-83) (Homo sapiens, UniProt Q00987).
T1 construct: Amino acid residues 1-188 of human MDM2 were expressed; made in house; host or cells: Escherichia coli
T1 sequence (Q00987 1-188): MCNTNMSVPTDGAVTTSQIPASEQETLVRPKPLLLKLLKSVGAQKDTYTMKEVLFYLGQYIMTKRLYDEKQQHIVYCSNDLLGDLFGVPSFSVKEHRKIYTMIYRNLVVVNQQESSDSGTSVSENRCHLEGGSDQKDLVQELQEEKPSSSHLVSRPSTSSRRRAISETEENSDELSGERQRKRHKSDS
The experiment is described as follows: improved HTRF assay (HTRF2 assay), inhibition of HDM2-p53 interaction. In kind it is binding. The note with it: 0.2 nM GST-hMDM2, 0.5 nM biotinylated-p53, 100 mM KF. The method, boiled down:
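GST-hMDM2 preincubated 20 min at RT with serially diluted compound, then biotinylated p53 (1-83, E. coli) added for 60 min. Detection with SA-XLent, anti-GST cryptate and KF, equilibrated >4 h; final DMSO 2%. TR-FRET read; % inhibition calculated relative to nutlin-3.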
The molecule `C[C@@H]1CCCN1S(=O)(=O)C[C@H](C1CC1)N1C(=O)[C@@H](CC(=O)O)O[C@H](c2cccc(Cl)c2)[C@H]1c1ccc(Cl)cc1` (single isomer, unassigned) [Example 304, 2-((2R,5R,6R)-6-(3-Chlorophenyl)-5-(4-chlorophenyl)-4-((S)-1-cyclopropyl-2-(((R)-2-methylpyrrolidin-1-yl)sulfonyl)ethyl)-3-oxomorpholin-2-yl)acetic acid or 2-((2S,5R,6R)-6-(3-chlorophenyl)-5-(4-chlorophenyl)-4-((S)-1-cyclopropyl-2-(((R)-2-methylpyrrolidin-1-yl)sulfonyl)ethyl)-3-oxomorpholin-2-yl)acetic acid] had a half-inhibitory concentration (IC50) of under 1 nM.

For the molecule `CC(C)(C)S(=O)(=O)C[C@H](C1CC1)N1C(=O)[C@@H](Cc2cnn[nH]2)O[C@H](c2cccc(Cl)c2)[C@H]1c1ccc(Cl)cc1` (single isomer, unassigned) [Example 385, (2R,5R,6R)-2-((1H-1,2,3-Triazol-5-yl)methyl)-4-((S)-2-(tert-butylsulfonyl)-1-cyclopropylethyl)-6-(3-chlorophenyl)-5-(4-chlorophenyl)morpholin-3-one or (2S,5R,6R)-2-((1H-1,2,3-triazol-5-yl)methyl)-4-((S)-2-(tert-butylsulfonyl)-1-cyclopropylethyl)-6-(3-chlorophenyl)-5-(4-chlorophenyl)morpholin-3-one], the IC50 amounted to 4 nM. In other words, the single-digit nanomolar range.

Take `O=C1[C@@H](Cc2cnn[nH]2)O[C@H](c2cccc(Cl)c2)[C@@H](c2ccc(Cl)cc2)N1[C@H](CN(c1ccccc1F)S(=O)(=O)C1CC1)C1CC1` (single isomer, unassigned) [Example 395, N-((S)-2-((2R,5R,6R)-2-((1H-1,2,3-Triazol-5-yl)methyl)-6-(3-chlorophenyl)-5-(4-chlorophenyl)-3-oxomorpholino)-2-cyclopropylethyl)-N-(2-fluorophenyl)cyclopropanesulfonamide or N-((S)-2-((2S,5R,6R)-2-((1H-1,2,3-triazol-5-yl)methyl)-6-(3-chlorophenyl)-5-(4-chlorophenyl)-3-oxomorpholino)-2-cyclopropylethyl)-N-(2-fluorophenyl)cyclopropanesulfonamide]: the midpoint of inhibition, the IC50, lay at 1 nM. Compared with the last molecule, the IC50 is about 4-fold lower.

On to `CC(C)(C)S(=O)(=O)C[C@H](C1CC1)N1C(=O)[C@@H](CC(=O)Nc2ccccn2)O[C@H](c2cccc(Cl)c2)[C@H]1c1ccc(Cl)cc1` (single isomer, unassigned) [Example 354, 2-((2R,5R,6R)-4-((S)-2-(tert-Butylsulfonyl)-1-cyclopropylethyl)-6-(3-chlorophenyl)-5-(4-chlorophenyl)-3-oxomorpholin-2-yl)-N-(pyridin-2-yl)acetamide or 2-((2S,5R,6R)-4-((S)-2-(tert-butylsulfonyl)-1-cyclopropylethyl)-6-(3-chlorophenyl)-5-(4-chlorophenyl)-3-oxomorpholin-2-yl)-N-(pyridin-2-yl)acetamide], for which the IC50 is 2 nM. This IC50 is about 2-fold higher than that of the molecule before.

Turning to `CC[C@@H](CS(=O)(=O)c1ccccc1Cl)N1C(=O)[C@@H](CC(=O)O)O[C@H](c2cccc(Cl)c2)[C@H]1c1ccc(Cl)cc1` (single isomer, unassigned) [Example 138, 2-((2R,5R,6R)-6-(3-chlorophenyl)-5-(4-chlorophenyl)-4-((S)-1-((2-chlorophenyl)sulfonyl)butan-2-yl)-3-oxomorpholin-2-yl)acetic acid or 2-((2S,5R,6R)-6-(3-chlorophenyl)-5-(4-chlorophenyl)-4-((S)-1-((2-chlorophenyl)sulfonyl)butan-2-yl)-3-oxomorpholin-2-yl)acetic acid], it took 29 nM to reach half-maximal inhibition (IC50).

`O=C(O)C[C@H]1O[C@H](c2cccc(Cl)c2)[C@@H](c2ccc(Cl)cc2)N([C@H](CN(c2ccccc2F)S(=O)(=O)C2CC2)CC(F)(F)F)C1=O` (single isomer, unassigned) [Example 279] registered an IC50 of 39 nM.

On to `CC(C)(C)S(=O)(=O)C[C@H](C1CC1)N1C(=O)[C@@H](CC(=O)O)O[C@H](c2ccc(C#N)c(Cl)c2)[C@H]1c1ccc(Cl)cc1` (single isomer, unassigned) [Example 324, 2-((2R,5R,6R)-4-((S)-2-(tert-Butylsulfonyl)-1-cyclopropylethyl)-6-(3-chloro-4-cyanophenyl)-5-(4-chlorophenyl)-3-oxomorpholin-2-yl)acetic acid or 2-((2S,5R,6R)-4-((S)-2-(tert-butylsulfonyl)-1-cyclopropylethyl)-6-(3-chloro-4-cyanophenyl)-5-(4-chlorophenyl)-3-oxomorpholin-2-yl)acetic acid], for which the IC50 worked out at 7 nM.

Consider `CNC(=O)C[C@H]1O[C@H](c2cccc(Cl)c2)[C@@H](c2ccc(Cl)cc2)N([C@@H](C)CS(=O)(=O)C(C)(C)C)C1=O` (single isomer, unassigned) [Example 228, 2-((2R,5R,6R)-4-((S)-1-(tert-butylsulfonyl)propan-2-yl)-6-(3-chlorophenyl)-5-(4-chlorophenyl)-3-oxomorpholin-2-yl)-N-methylacetamide or 2-((2S,5R,6R)-4-((S)-1-(tert-butylsulfonyl)propan-2-yl)-6-(3-chlorophenyl)-5-(4-chlorophenyl)-3-oxomorpholin-2-yl)-N-methylacetamide], for which it took 14 nM to reach half-maximal inhibition (IC50). Against the preceding molecule, the IC50 is about 2-fold higher.

On to `CC[C@@H](CS(=O)(=O)C1CCC1)N1C(=O)[C@@H](CC(=O)O)O[C@H](c2cccc(Cl)c2)[C@H]1c1ccc(Cl)cc1` (single isomer, unassigned) [Example 142, 2-((2R,5R,6R)-6-(3-chlorophenyl)-5-(4-chlorophenyl)-4-((S)-1-(cyclobutylsulfonyl)butan-2-yl)-3-oxomorpholin-2-yl)acetic acid or 2-((2S,5R,6R)-6-(3-chlorophenyl)-5-(4-chlorophenyl)-4-((S)-1-(cyclobutylsulfonyl)butan-2-yl)-3-oxomorpholin-2-yl)acetic acid], for which the IC50 was 7 nM.

In the case of `O=C(O)C[C@H]1O[C@H](c2cccc(Cl)c2)[C@@H](c2ccc(Cl)c(F)c2)N([C@H](CN(c2ccccc2F)S(=O)(=O)C2CC2)C2CC2)C1=O` (single isomer, unassigned) [Example 315, 2-((2R,5R,6R)-5-(4-Chloro-3-fluorophenyl)-6-(3-chlorophenyl)-4-((S)-1-cyclopropyl-2-(N-(2-fluorophenyl)cyclopropanesulfonamido)ethyl)-3-oxomorpholin-2-yl)acetic acid or 2-((2S,5R,6R)-5-(4-chloro-3-fluorophenyl)-6-(3-chlorophenyl)-4-((S)-1-cyclopropyl-2-(N-(2-fluorophenyl)cyclopropanesulfonamido)ethyl)-3-oxomorpholin-2-yl)acetic acid], the IC50 was under 1 nM.

The molecule `CC[C@@H](CS(=O)(=O)C(C)(C)CC)N1C(=O)[C@@H](CC(=O)O)O[C@H](c2cccc(Cl)c2)[C@H]1c1ccc(Cl)cc1` (single isomer, unassigned) [Example 122, 2-((2R,5R,6R)-6-(3-Chlorophenyl)-5-(4-chlorophenyl)-3-oxo-4-((S)-1-(tert-pentylsulfonyl)butan-2-yl)morpholin-2-yl)acetic acid or 2-((2S,5R,6R)-6-(3-Chlorophenyl)-5-(4-chlorophenyl)-3-oxo-4-((S)-1-(tert-pentylsulfonyl)butan-2-yl)morpholin-2-yl)acetic acid] showed an IC50 of under 1 nM.

Regarding `CC(C)(C)S(=O)(=O)C[C@H](C1CC1)N1C(=O)[C@@H](CC(=O)O)O[C@H](c2cccc(Cl)c2F)[C@H]1c1ccc(Cl)cc1.CC(C)(C)S(=O)(=O)C[C@H](C1CC1)N1C(=O)[C@H](CC(=O)O)O[C@H](c2cccc(Cl)c2F)[C@H]1c1ccc(Cl)cc1` (mixture of isomers) [Example 326, 2-((2R,5R,6R)-4-((S)-2-(tert-Butylsulfonyl)-1-cyclopropylethyl)-6-(3-chloro-2-fluorophenyl)-5-(4-chlorophenyl)-3-oxomorpholin-2-yl)acetic acid and 2-((2S,5R,6R)-4-((S)-2-(tert-butylsulfonyl)-1-cyclopropylethyl)-6-(3-chloro-2-fluorophenyl)-5-(4-chlorophenyl)-3-oxomorpholin-2-yl)acetic acid], the IC50 is under 1 nM.

`C[C@@H](CS(=O)(=O)C(C)(C)C)N1C(=O)[C@@H](CC(=O)O)O[C@H](c2cc(F)cc(Cl)c2)[C@H]1c1ccc(Cl)c(F)c1` (single isomer, unassigned) [Example 424, 2-((2R,5R,6R)-4-((S)-1-(tert-Butylsulfonyl)propan-2-yl)-5-(4-chloro-3-fluorophenyl)-6-(3-chloro-5-fluorophenyl)-3-oxomorpholin-2-yl)acetic acid or 2-((2S,5R,6R)-4-((S)-1-(tert-butylsulfonyl)propan-2-yl)-5-(4-chloro-3-fluorophenyl)-6-(3-chloro-5-fluorophenyl)-3-oxomorpholin-2-yl)acetic acid]: the IC50 was 3 nM.

In turn, `CNC(=O)C[C@@H]1O[C@H](c2cccc(Cl)c2)[C@@H](c2ccc(Cl)cc2)N([C@@H](C)CS(=O)(=O)C(C)(C)C)C1=O` (single isomer, unassigned) [Example 227, 2-((2S,5R,6R)-4-((S)-1-(tert-butylsulfonyl)propan-2-yl)-6-(3-chlorophenyl)-5-(4-chlorophenyl)-3-oxomorpholin-2-yl)-N-methylacetamide or 2-((2R,5R,6R)-4-((S)-1-(tert-butylsulfonyl)propan-2-yl)-6-(3-chlorophenyl)-5-(4-chlorophenyl)-3-oxomorpholin-2-yl)-N-methylacetamide] had an IC50 of 11 nM.

As for `CC(C)S(=O)(=O)[C@H]1CCC[C@@H]1N1C(=O)[C@@H](CC(=O)O)O[C@H](c2cccc(Cl)c2)[C@H]1c1ccc(Cl)cc1` (single isomer, unassigned) [Example 422], the IC50 came out at 3 nM. This IC50 is about 3.7-fold lower than that of the molecule before.

As to `CC[C@@H](CS(=O)(=O)C(C)(C)C)N1C(=O)[C@H](CC(=O)NC#N)O[C@H](c2cccc(Cl)c2)[C@H]1c1ccc(Cl)cc1` [Example 344, 2-((2S,5R,6R)-4-((S)-1-(tert-Butylsulfonyl)butan-2-yl)-6-(3-chlorophenyl)-5-(4-chlorophenyl)-3-oxomorpholin-2-yl)-N-cyanoacetamide], the IC50 is under 1 nM.
